Results taken from US6555356B2, “Methods for microbial regulation” (Unisearch Limited, priority 1995, dated 2003).
≈ marks a conversion by molar mass, not a printed value.

Columns and labels:
Assay type in all cases: cell-based
[1] = test system: Candida albicans; experiment: Fungal growth inhibition zone assay, Candida albicans
Procedure: (§1) In addition to the tests described above, the effects of selected compounds of the general formula 2 on growth of bacteria, one yeast (Candida albicans) and one fungus (Helminthosporium sp.) were assessed. Bacteria were grown in liquid media in the presence of different concentrations of furanones and growth measured via changes in optical density (OD). Fungal assays were done by inoculating agar plates with spores. These plates contained different concentrations of furanone compounds in wells within the plates. Zones of inhibition around these wells were measured after 48 hours.

[2] = test system: Helminthosporium sp.; experiment: Fungal growth inhibition zone assay, Helminthosporium sp.
Procedure: as §1

[3] = test system: Serratia liquefaciens; experiment: Serratia liquefaciens swarming assay; details: 5-100 μg/ml in LB agar (0.7%) plates
Procedure: (§2) Serratia liquefaciens was grown in liquid LB medium at room temperature to an optical density of 0.3 at 450 nm and stable inoculated onto LB agar (0.7% agar) plates. Plates were incubated at 30° C. and observed regularly for swarming behaviour. The effect on swarming of furanone compounds was tested by adding (after sterilisation and cooling of the agar) compounds 1-13 (FIG. 3). in the concentration range of 5-100 μg/ml, to the plates.

[4] = test system: Serratia liquefaciens; experiment: Growth of Serratia liquefaciens in liquid LB medium; details: 100 μg/ml
Procedure: (§3) The effect on growth of Serratia liquefaciens by furanone compounds was also measured in liquid LB medium by comparing growth of cultures without the addition of compounds versus growth of cultures with added furanone compounds (100 μg/ml of compounds 1-13 (FIG. 3) in separate cultures). Growth was measured as optical density at 450 nm and followed over a 48 hr period.

[5] = test system: Chromobacterium violencia mutant negative for the HSL auto inducer; experiment: Chromobacterium violencia (indigo) assay; details: for Effect on HSL phenotype: indigo formation: Chromobacterium violencia, 100 μg/ml; for Stimulation of indigo production by the compound itself: indigo negative Chromobacterium violencia mutant, addition of compound
Procedure: (§4) A mutant of Chromobacterium violencia negative for the HSL auto inducer was used in the assay. The strain was pour plated in LB medium at high density and wells were punched after the media had set. Sterile, filtered supernatants from various HSL producing strains were added to the wells. Plates were incubated at 30° C. and observed for the formation of purple zones (due to […]) around the wells. The effects of furanone compounds 1 and 2 (FIG. 3) were assessed by running this assay on plates of LB medium containing furanone compounds at a concentration of 100 μg/ml. The effects of the compounds on growth of Chromobacterium were assessed as above.

[6] = test system: Chromobacterium violencia; experiment: Growth of Chromobacterium violencia; details: 100 μg/ml
Procedure: as §3, §4

[7] = test system: Pseudomonas aeruginosa; experiment: Pseudomonas aeruginosa (elastase) assay; details: 100 μg/ml in elastin agar
Procedure: (§5) Inoculants from precultures were streaked onto Peptone-Tryptic Soy Broth agar containing 0.3% elastin. Plates were incubated at 37° C. and observed for hydrolysis of the elastin. The effect of furanone compounds was assess by adding compounds 1-4 (100 μg/ml) to the plates and comparing zones of hydrolysis in plates with and without the compounds.

[8] = test system: Vibrio fisheri; experiment: Vibrio fisheri bioluminescence assay; details: 100 μg/ml, visual inspection of agar plates
Procedure: (§6) Initial assays for both strains of Vibrio were streaked onto LB agar plates (with 2% NaCl) with and without furanone compounds 1-4 at 5-100 μg/ml. Bioluminescence of the plates was visually assessed after 24 hours of incubation at room temperature. In subsequent assays, both strains were grown in liquid culture in the presence of furanones. Bioluminescence was assayed via a luminometer. The effects of furanones on growth of both strains were assayed as above.

[9] = test system: Vibrio harveyi; experiment: Vibrio harveyi bioluminescence assay; details: 100 μg/ml, visual inspection of agar plates
Procedure: as §6

[10] = test system: Vibrio fisheri; experiment: Growth of Vibrio fisheri
Procedure: as §3, §6

[11] = test system: Vibrio harveyi; experiment: Growth of Vibrio harveyi
Procedure: as §3, §6

[12] = test system: strain R12; experiment: Marine isolate swimming, strain R12
[13] = test system: strain R12; experiment: Marine isolate growth in liquid media, strain R12
Procedure: as §3
(§7) Methods followed those described for Serratia liquefaciens (above). Inhibition of growth of these bacteria by furanones was assessed as above.

[14] = test system: strain R12; experiment: Marine isolate swarming, strain R12
Procedure: as §2, §7

[15] = test system: strain R86; experiment: Marine isolate swimming, strain R86
[16] = test system: strain R86; experiment: Marine isolate growth in liquid media, strain R86
Procedure: as §3, §7

[17] = test system: strain R86; experiment: Marine isolate swarming, strain R86
Procedure: as §2, §7

[18] = test system: strain R130; experiment: Marine isolate swimming, strain R130
[19] = test system: strain R130; experiment: Marine isolate growth in liquid media, strain R130
Procedure: as §3, §7

[20] = test system: strain R130; experiment: Marine isolate swarming, strain R130
Procedure: as §2, §7

[21] = test system: strain V21; experiment: Marine isolate swimming, strain V21
[22] = test system: strain V21; experiment: Marine isolate growth in liquid media, strain V21
Procedure: as §3, §7

[23] = test system: strain V21; experiment: Marine isolate swarming, strain V21
Procedure: as §2, §7

[24] = test system: strain V54; experiment: Marine isolate swimming, strain V54
[25] = test system: strain V54; experiment: Marine isolate growth in liquid media, strain V54
Procedure: as §3, §7

[26] = test system: strain V54; experiment: Marine isolate swarming, strain V54
Procedure: as §2, §7

[27] = test system: strain V55; experiment: Marine isolate swimming, strain V55
[28] = test system: strain V55; experiment: Marine isolate growth in liquid media, strain V55
Procedure: as §3, §7

[29] = test system: strain V55; experiment: Marine isolate swarming, strain V55
Procedure: as §2, §7

[30] = test system: Pseudomonas aeruginosa; experiment: Growth of Pseudomonas aeruginosa on plates; details: 100 μg/ml
Procedure: as §5

SMILES | width of inhibition zone ([1]; amount added 0.1 μg) | width of inhibition zone ([1]; amount added 1 μg) | width of inhibition zone ([1]; amount added 10 μg) | width of inhibition zone ([1]; amount added 100 μg) | width of inhibition zone ([2]; amount added 0.1 μg) [mm] | width of inhibition zone ([2]; amount added 1 μg) | width of inhibition zone ([2]; amount added 10 μg) | width of inhibition zone ([2]; amount added 100 μg) | Effect on HSL phenotype: swarming [3] | Effect on bacterial growth [4] | Effect on HSL phenotype: indigo formation [5] | Stimulation of indigo production by the compound itself [5] | Effect on bacterial growth [6] | Effect on HSL phenotype: elastase [7] | Effect on HSL phenotype: luminescence [8] | Effect on HSL phenotype: luminescence [9] | Effect on bacterial growth [10] | Effect on bacterial growth [11] | Minimum inhibitory concentration, Swimming [12] [µg/mL] | Minimum inhibitory concentration, Growth [13] [µg/mL] | also measured
C[C@@H]1[C@H](O)[C@@H](C)/C=C/C=C/C=C/C=C/C=C/C=C/C=C/[C@H](O[C@@H]2O[C@H](C)[C@@H](O)[C@H](N)[C@@H]2O)C[C@@H]2O[C@](O)(C[C@@H](O)C[C@@H](O)[C@H](O)CC[C@@H](O)C[C@@H](O)CC(=O)O[C@H]1C)C[C@H](O)[C@H]2C(=O)O [Amphotericin B, reference compound] | 2-4 mm | 5-7 mm | 6-10 mm | 1.14 mm | 2 | 6 mm | 6-8 mm | 7-10 mm |  |  |  |  |  |  |  |  |  |  |  |  | 
CCCCC1=C(Br)C(=C(Br)Br)OC1=O [Compound 1] | 0 mm | 0 mm | 0 mm | 1-2 mm | 0 | 0 mm | 2-5 mm | 20 mm | inhibit | no effect | inhibit | do not stimulate | no effect | stimulated | inhibit | inhibit | no effect | no effect | >50 | >50 | Minimum inhibitory concentration, Swarming [14]: 5 µg/mL (≈ 12.9 µM); Minimum inhibitory concentration, Swimming [15]: 50 µg/mL (≈ 129 µM); Minimum inhibitory concentration, Growth [16]: >50 µg/mL; Minimum inhibitory concentration, Swarming [17]: 25 µg/mL (≈ 64.3 µM); Minimum inhibitory concentration, Swimming [18]: >50 µg/mL; Minimum inhibitory concentration, Growth [19]: >50 µg/mL; Minimum inhibitory concentration, Swarming [20]: 25 µg/mL (≈ 64.3 µM); Minimum inhibitory concentration, Swimming [21]: 25 µg/mL (≈ 64.3 µM); Minimum inhibitory concentration, Growth [22]: 25 µg/mL (≈ 64.3 µM); Minimum inhibitory concentration, Swarming [23]: 5 µg/mL (≈ 12.9 µM); Minimum inhibitory concentration, Swimming [24]: 5 µg/mL (≈ 12.9 µM); Minimum inhibitory concentration, Growth [25]: >50 µg/mL; Minimum inhibitory concentration, Swarming [26]: 25 µg/mL (≈ 64.3 µM); Minimum inhibitory concentration, Swimming [27]: 5 µg/mL (≈ 12.9 µM); Minimum inhibitory concentration, Growth [28]: >50 µg/mL; Minimum inhibitory concentration, Swarming [29]: 5 µg/mL (≈ 12.9 µM)
CCCCC1=C(Br)C(=CBr)OC1=O [Compound 2] | 0 mm | 0 mm | 0 mm | 2-3 mm | 0 | 0 mm | 2-4 mm | 20 mm | inhibit | no effect | inhibit | do not stimulate | no effect | stimulated | inhibit | inhibit | no effect | no effect | >50 | >50 | Effect on bacterial growth [30]: no detectable effect; Minimum inhibitory concentration, Swarming [14]: 5 µg/mL (≈ 16.1 µM); Minimum inhibitory concentration, Swimming [15]: >50 µg/mL; Minimum inhibitory concentration, Growth [16]: >50 µg/mL; Minimum inhibitory concentration, Swarming [17]: 5 µg/mL (≈ 16.1 µM); Minimum inhibitory concentration, Swimming [18]: >50 µg/mL; Minimum inhibitory concentration, Growth [19]: >50 µg/mL; Minimum inhibitory concentration, Swarming [20]: 25 µg/mL (≈ 80.6 µM); Minimum inhibitory concentration, Swimming [21]: 25 µg/mL (≈ 80.6 µM); Minimum inhibitory concentration, Growth [22]: 25 µg/mL (≈ 80.6 µM); Minimum inhibitory concentration, Swarming [23]: 5 µg/mL (≈ 16.1 µM); Minimum inhibitory concentration, Swimming [24]: 5 µg/mL (≈ 16.1 µM); Minimum inhibitory concentration, Growth [25]: >50 µg/mL; Minimum inhibitory concentration, Swarming [26]: 5 µg/mL (≈ 16.1 µM); Minimum inhibitory concentration, Swimming [27]: 5 µg/mL (≈ 16.1 µM); Minimum inhibitory concentration, Growth [28]: >50 µg/mL; Minimum inhibitory concentration, Swarming [29]: 5 µg/mL (≈ 16.1 µM)
CCCC(OC(C)=O)C1=C(Br)C(=CI)OC1=O (stereo not drawn) [Compound 5] | 0 mm | 0 mm | 1 mm | 3-8 mm | 0 | 2-4 mm | 9-13 mm | 20 mm |  |  |  |  |  |  |  |  |  |  |  |  | 
CCCCC1=CC(=C(Br)Br)OC1=O [Compound 8] | 0 mm | 0 mm | 0 mm | 0 mm | 0 | 0 mm | 0 mm | 20 mm |  |  |  |  |  |  |  |  |  |  |  |  | 
CCCCCCC1=CC(=C(Br)Br)OC1=O [Compound 13] | 0 mm | 0 mm | 0 mm | 1 mm | 0 | 0 mm | 0 mm | 0 mm |  |  |  |  |  |  |  |  |  |  |  |  | 
